Read-outs that look alike come from different tables or passages of the source.

Data set [1] has as its system Caco-2 cells. Briefly: Permeability, Caco-2 assay. The data set is classed as in vitro ADME. The note with it: 37 °C; for Mean Papp A to B: Caco-2, pH 7.40, 2 hours. On the procedure: Permeability of test compounds was determined in Caco-2 Assay. Caco-2 cells purchased from ATCC were seeded onto […] membranes (PET) in 96-well Corning Insert plates at 1×10^5 cells/cm^2, and refreshed medium every 4~5 days until to the 21st to 28th day for confluent cell monolayer formation. The transport buffer in the study was HBSS with 10.0 mM HEPES at pH 7.40±0.05. Test compound was tested at […] bi-directionally in duplicate. Digoxin was tested at 10.0 μM bi-directionally in duplicate, while nadolol and metoprolol were tested at 2.00 μM in A to B direction in duplicate. Final DMSO concentration was adjusted to less than 1%. The plate was incubated for 2 hours in CO2 incubator at 37±1° C., with 5% CO2 at saturated humidity without shaking. And all samples after mixed with acetonitrile containing internal standard were centrifuged at 3200×g for 10 min. For nadolol and metoprolol, 200 μL supernatant solution was diluted with 600 μL ultra-pure water for LC-MS/MS analysis. For digoxin and test compounds, 200 μL supernatant solution was diluted with 200 μL ultra-pure water for LC-MS/MS analysis. Concentrations of test and control compounds in starting solution, donor solution, and receiver solution were quantified by LC-MS/MS methodologies, using peak area ratio of analyte/internal standard. After transport assay, lucifer yellow rejection assay was applied to determine the Caco-2 cell monolayer integrity.

A short description of data set [2]: Body weight change in PDX study in NCG mice. The data set is classed as in vivo. As to conditions: P.O QD × 27; all mice. The source says:
Mice were assigned into groups using randomized block design based on their tumor volumes. The test article administration and the animal numbers in each study group are shown in the following experimental design table 5, the PDX model information are shown in the table 6.
For routine monitoring, all study animals were monitored for not only tumor growth but also behavior such as mobility, food, and water consumption (by cage side checking only), body weight (BW), eye/hair matting and any other abnormal effect. Any mortality and/or abnormal clinical signs were recorded.
Body weights of all animals were measured twice a week throughout the study. Body weight change, expressed in %, is calculated using the following formula: BWL (%)=(BWi−BW0)/BW0×100, BWi is the body weight, BW0 is the bodyweight on the first day of treatment.
The statistical software GraphPad Prism was used to analyze the difference in tumor volume and body weight between the treatment group and the vehicle control group. All the data is described as Mean±SEM, and one-way ANOVA analysis of variance was performed.

In data set [3] the test system is ER+/KAT6a^high ZR-75-1 breast cancer cell line. The data set can be described thus: In vitro cytotoxicity in ER+/KAT6a^high ZR-75-1 breast cancer cell line (CTG assay, 14 days). The data set is classed as cell-based, Human. On the procedure:
Single agent experiments (n=3 per each compound) were performed to obtain the IC10, IC25, IC50 and IC75 values for each drug to be used hereafter in the combo treatment.
The cytotoxicity was evaluated by CTG assay upon 14 days of treatment and stimulation with 1 nM E2. Statistical analysis was performed by 2 way ANOVA Tukey's multiple comparison test (* 0.01<p<0.05).
Human ER+/KAT6A^high breast cancer cell line ZR-75-1 (ATCC, Virginia, US) was cultured in RPMI 1640 medium (Gibco, Life Technologies, Carlsbad, CA, USA) supplemented with 10% fetal bovine serum (FBS)(Sigma, Saint Louis, CA, USA). All cells were incubated at 37° C., 5% CO2, 80-95% relative humidity.
Stock solutions were added at appropriate concentration in culture medium before the addition to cells.
For the cytotoxicity assay, cells were previously starved 48 h in RPMI 1640 no phenol red supplemented with 8% charcoal stripped FBS, and then seeded at appropriate density (2000 cells/well) in starvation media the day before starting the treatment. […] Concentration range was previously identified in single agent cytotoxic assay for the same time points in order to include in the combination experiment IC10, IC25, IC50 and IC75 values for each drug. After 14 days of treatment, CellTiter-Glo® 2.0 Cell Viability Assay (CTG)(Promega, Madison, WI, USA) was added to assess cell viability. Luminescence was measured 10 min later using Tecan Infinite M200 (Tecan Trading AG, Switzerland).

`COc1cccc(OC)c1S(=O)(=O)Nc1noc2cc(Oc3ccccn3)cc(OC)c12` [Compound 9, 2,6-dimethoxy-N-(4-methoxy-6-(pyridin-2-yloxy)benzo[d]isoxazol-3-yl)benzenesulfonamide]: in data set [1], the “Mean Papp A to B” value is listed as 11.8 10^-6 cm/s. The same measure, in the same setting: under `COc1cccc(OC)c1S(=O)(=O)Nc1noc2cc(Cn3cccn3)c3c(c12)OCCC3` [Compound 14, N-(5-((1H-pyrazol-1-yl)methyl)-3,4-dihydro-2H-chromeno[8,7-d]isoxazol-9-yl)-2,6-dimethoxybenzenesulfonamide] stands 0.439 10^-6 cm/s; under `COc1cccc(OC)c1S(=O)(=O)Nc1noc2cc(Cn3cccn3)c3c(c12)OCCCC3` [Compound 19, N-(6-((1H-pyrazol-1-yl)methyl)-2,3,4,5,9,10-hexahydrooxepino [3′,2′: 5,6]benzo[1,2-d]isoxazol-10-yl)-2,6-dimethoxybenzenesulfonamide], 3.47 10^-6 cm/s.

For the compound `COc1cccc(OC)c1S(=O)(=O)Nc1noc2cc(Oc3ccccn3)cc(OC(F)F)c12` [Compound 22, N-(4-(difluoromethoxy)-6-(pyridin-2-yloxy)benzo[d]isoxazol-3-yl)-2,6-dimethoxybenzenesulfonamide], the “Mean Papp A to B” value in data set [1] is reported as 3.45 10^-6 cm/s. `COc1cccc(OC)c1S(=O)(=O)Nc1noc2cc(Oc3ccccn3)c3c(c12)OCC3` [Compound 23, 2,6-dimethoxy-N-(4-(pyridin-2-yloxy)-2,3-dihydrobenzofuro[7,6-d]isoxazol-8-yl)benzenesulfonamide]: the “Mean Papp A to B” value in data set [1] is 1.30 10^-6 cm/s.

For the compound `COc1cccc(OC)c1S(=O)(=O)Nc1noc2cc(Oc3ccccn3)c3c(c12)OCCC3` [Compound 24, 2,6-dimethoxy-N-(5-(pyridin-2-yloxy)-3,4-dihydro-2H-chromeno[8,7-d]isoxazol-9-yl)benzenesulfonamide], the “Efflux Ratio” value in data set [1] (Caco-2, bi-directional, pH 7.40, 2 hours) was found to be 3.2. Besides, in data set [1], the “Mean Papp A to B” value is recorded as 12.9 10^-6 cm/s.

As for `COc1ccnc(OC)c1S(=O)(=O)Nc1noc2cc(Oc3ccccn3)c3c(c12)OCCC3` [Compound 28, 2,4-dimethoxy-N-(5-(pyridin-2-yloxy)-3,4-dihydro-2H-chromeno[8,7-d]isoxazol-9-yl)pyridine-3-sulfonamide], the “Mean Papp A to B” value in data set [1] is listed as 2.38 10^-6 cm/s. On the same count and under the same terms, under `COc1cccc(OC)c1S(=O)(=O)Nc1noc2cc(Cc3ccccn3)c3c(c12)OCCC3` [Compound 46, 2,6-dimethoxy-N-(5-(pyridin-2-ylmethyl)-3,4-dihydro-2H-chromeno[8,7-d]isoxazol-9-yl)benzenesulfonamide] stands 2.66 10^-6 cm/s. Same read-out and setting: next, `COc1cccc(OC)c1S(=O)(=O)Nc1noc2cc(Cc3nccs3)c3c(c12)OCCC3` [Compound 47]: 3.53 10^-6 cm/s.

For `COc1cc(C)nc(OC)c1S(=O)(=O)Nc1noc2cc(Oc3nccs3)cc(OCF)c12` [Compound 55, N-(4-(fluoromethoxy)-6-(thiazol-2-yloxy)benzo[d]isoxazol-3-yl)-2,4-dimethoxy-6-methylpyridine-3-sulfonamide], in data set [1], the “Mean Papp A to B” value is on record as 1.46 10^-6 cm/s. On the same count and under the same terms, next, `COc1ccccc1S(=O)(=O)Nc1noc2cc(Oc3nccs3)cc(OCF)c12` [Compound 56, N-(4-(fluoromethoxy)-6-(thiazol-2-yloxy)benzo[d]isoxazol-3-yl)-2-methoxybenzenesulfonamide]: 5.28 10^-6 cm/s; `COc1cccc(OC)c1S(=O)(=O)Nc1noc2cc(Oc3nccs3)cc(OC)c12` [Compound 59, 2,6-dimethoxy-N-(4-methoxy-6-(thiazol-2-yloxy)benzo[d]isoxazol-3-yl)benzenesulfonamide]: 6.20 10^-6 cm/s. The same measure, in the same setting: under `COc1ccccc1S(=O)(=O)Nc1noc2cc(Oc3nccs3)cc(OC)c12` [Compound 60, 2-methoxy-N-(4-methoxy-6-(thiazol-2-yloxy)benzo[d]isoxazol-3-yl)benzenesulfonamide] stands 13.7 10^-6 cm/s; under `COc1ccccc1S(=O)(=O)Nc1noc2cc(Oc3nccs3)c3c(c12)OCCC3` [Compound 61, 2-methoxy-N-(5-(thiazol-2-yloxy)-3,4-dihydro-2H-chromeno[8,7-d]isoxazol-9-yl)benzenesulfonamide], 9.38 10^-6 cm/s. Regarding `COc1cccc(OC)c1S(=O)(=O)Nc1noc2cc(Oc3nccs3)c3c(c12)OCCCC3` [Compound 62, 2,6-dimethoxy-N-(6-(thiazol-2-yloxy)-2,3,4,5,9,10-hexahydrooxepino [3′,2′: 5,6]benzo[1,2-d]isoxazol-10-yl)benzenesulfonamide], the “Mean Papp A to B” value in data set [1] is 10.6 10^-6 cm/s. Same read-out and setting: under `COc1ccccc1S(=O)(=O)Nc1noc2cc(Oc3nccs3)c3c(c12)OCCCC3` [Compound 63] stands 6.48 10^-6 cm/s; under `COc1cc(C)nc(OC)c1S(=O)(=O)Nc1noc2cc(Oc3nccs3)c3c(c12)OCCCC3` [Compound 64], 9.00 10^-6 cm/s.

For `COc1ccccc1S(=O)(=O)Nc1noc2cc(Cn3cccn3)cc(OC)c12` [Compound 70], the body weight entry in data set [2] is on record as “maintained the body weight well”. Take `CCNCCc1ccc(CN(CC)c2cc(OC)ccc2[C@@H]2CCc3cc(O)ccc3C2)cc1` [elacestrant, reference compound]: the IC50 in data set [3] (elacestrant single agent, 1 nM E2, read-out: IC50 (cytotoxic action)) came to 260 nM; in data set [3] (single agent, 1 nM E2, read-out: IC50), 260 nM. The IC25 in data set [3] (elacestrant, 1 nM E2) was found to be 56 nM; in data set [3] (single agent, 1 nM E2), 56 nM. The IC10 in data set [3] (single agent, 1 nM E2) was found to be 10 nM. The IC75 in data set [3] (single agent, 1 nM E2, non clinically relevant dose) came out at 1430 nM.

Source of the values: US20260294884A1 (Insilico Medicine IP Limited, priority 2023, published 2026).
